Results as given in patent US20110166078A1, “OLIGOSACCHARIDE COMPOUNDS FOR USE IN MOBILISING STEM CELLS” (ENDOTIS PHARMA, priority 2008, published 2011).

How the values were obtained:
[1] = tested on: PDGF-β-induced NHDF proliferation; experiment: PDGF-β-induced NHDF proliferation assay; assay type: cell-based, human; conditions: PDGF-β 10 ng/ml; FIGS. 8-12
Procedure: The activities of the compounds of the present invention were tested using a proliferation assay, such as the one described by N. Ali et al., J Pharmacol Sci, 2005, 98, 130-141. A defined number of cells is seeded in each well of a culture plate. In order to stimulate cell proliferation, a growth factor is added in some wells, while others remain unstimulated (basal proliferation conditions). To monitor the effects of substances of interest (oligosaccharides compounds according to the present invention) on basal and growth factor-induced cell proliferation, substances of interest are added at different concentrations (i.e. 0.1, 0.3, 1, 3, 10 or 30 μM) in presence or absence of the growth factor, respectively. After an incubation period of 24 hours, the total number of cells is estimated in all samples (generally through an indirect method, such as incorporation of radioactivity into the newly synthesised DNA or colorimetric assays based on cellular enzyme activities or metabolite production). The total number of cells for the control sample in which no substance of interest nor growth factor have been added is set to 1. The total number of cells in all the other samples is compared to this value in order to obtain the relative proliferation index.
Typically, cells are seeded in 48 or 96-well plates. After 2 h (i.e. the time required for cells to adhere to the support) the normal culture media is replaced by a minimal essential culture media in which cells are grown for 24 h (starvation period). This step is used to reduce cell growth (cell metabolism is slowed down in order to better visualise the growth factor stimulation effect) before adding an angiogenic protein, such as a growth factor i.e. FGF-2 or PDGF-β. No growth factor is added in basal proliferation conditions (independently of the presence or absence of the oligosaccharide of the present invention). To evaluate the inhibition of the oligosaccharide compounds according to the present invention on cell proliferation, the angiogenic protein (growth factor) is added at a fixed concentration (from 5 ng/ml to 10 ng/ml) with increasing amounts of oligosaccharide compounds (0.1, 0.3, 1, 3, 10 or 30 μM), which allows the IC50 value to be estimated (i.e. the oligosaccharide concentration at which the stimulatory effect of the growth factor is inhibited by 50%).
Following addition of the angiogenic protein (growth factor) over a 24 h stimulation period, a commercial reagent containing a substrate for a cellular enzyme is added and incubated for couple of hours. The degradation of the substrate by the enzyme leads to the production of a coloured product which is titrated by absorbance measurement. […]

[2] = tested on: control and VEGF-A-stimulated angiogenesis (endothelial tubules, HUVEC/NHDF co-culture); experiment: In vitro angiogenesis assay (endothelial tubule formation, AngioKit); assay type: cell-based, human; conditions: 30 μM compound; anti-CD31 ELISA and AngioSys image analysis; FIGS. 13-15
Excerpt: These experiments are also known as endothelial tubule formation assays and they are used to evaluate the compound effects on in vitro angiogenesis (the neo-formation of blood vessels from pre-existing ones). This process is critical in tumour development as bloodstream brings all the necessary nutrients and oxygen to cancer cells.
The assay uses a commercially available product (AngioKit) specially designed for screening experiments. The product consists of a 24 or 96-well culture plate containing endothelial and fibroblast cells. A similar assay has been developed “in-house” using 48-well culture plates.
Endothelial cells will, on a ten-day period, develop into a branched network of endothelial tubules or “primitive” blood vessels. This process requires a co-culture with fibroblasts, these latter cells secreting essential growth factors for endothelial cells. At the end of the incubation period (about ten days), angiogenesis is monitored both by ELISA and image analysis software quantifying different blood vessel parameters (number and average length of tubules, field area, number of junctions for example). All reagents and material (except the oligosaccharide compounds, the VEGF-A and the 48-well plate AngioKits) are bought from TCS CellWorks (http://www.tcscellworks.co.uk) which provides: • 24 and 96-well plate AngioKits (including culture medium) • Anti-CD31 (a cell marker specifically expressed on endothelial cells) reagents for ELISA and tubule staining procedures. • AngioSys image analysis software
For home-made 48-well plate AngioKits, NHDF and HUVEC cells were independently purchased while TCS CellWorks culture medium and protocol were used.
The cell medium is replaced with fresh one (day 1) and cells are incubated at 37° C. with the compounds of interest (oligosaccharides and/or angiogenic proteins, such as growth factors). During the course of the experiment, the culture medium (including oligosaccharides and/or angiogenic proteins) is replaced at days 4 and 7.
At day 10, the assay is terminated by the labelling of endothelial cells by an ELISA procedure (indirect colorimetric titration of the endothelial cell number through dosage of the endothelial-specific CD31 marker) and the staining of endothelial tubules. Photographs of stained tubules are taken and analysed with the AngioSys image analysis software.
In the following assay the effects of compounds 239, 240, 246, 247, 248, 249, 252, 254, 255 and 257 on in vitro angiogenesis were measured (all compounds were added at the 30 μM concentration). […] For the data presented in FIG. 13, AngioSys image analyses are shown on FIG. 14. Photographs of endothelial tubules are shown on the side of the anti-CD31 ELISA (see FIGS. 13 and 15).

[3] = biological target: FGF-2 (Homo sapiens, UniProt P09038); experiment: FGF-2/heparin competition assay by SPR (Biacore); assay type: binding; conditions: 10 nM FGF-2, biotinylated heparin, Sensorchip C1
Sequence of FGF-2 (P09038 143-288, species assumed): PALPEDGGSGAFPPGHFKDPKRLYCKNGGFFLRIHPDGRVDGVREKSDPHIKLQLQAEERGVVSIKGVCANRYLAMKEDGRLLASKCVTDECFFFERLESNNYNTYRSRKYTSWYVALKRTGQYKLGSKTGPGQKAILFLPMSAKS
Procedure: Heparin or low molecular weight heparin (6 kDa) from SIGMA were biotinylated at the reducing end and immobilized on a Biacore sensorchip. Different concentrations of the compounds of the present invention were co-incubated at a fixed concentration of targets: FGF-2, PDGF-β, VEGF-A or SDF-1α for 30 minutes. The mixture was then injected onto the streptavidin control (control reference) and HP surfaces. Only free growth factor (GF) or chemokine, i.e. the target molecules not bound to compounds of the present invention, were trapped on the heparin surface. From the binding of free targets on heparin, the percentages of inhibition were calculated and then reported in function of compound concentrations. The plot was fitted with a four-parameter model and IC50 was calculated. The 0% inhibition value was obtained for the injection of the studied target in running-buffer, and the 100% inhibition value was obtained for the injection of the studied target co-incubated with 10 μM of low molecular weight heparin 6 kDa.
A FGF-2/heparin competition assay using the Biacore technology was performed in the following conditions: 10 nM FGF-2, biotinylated heparin, Reference Streptavidin, Sensorchip C1, PBS-T 0.02%, Regeneration NaCl 2M
IC50 values of compounds of the present invention were determined using the Biacore technology for the growth factor and chemokine/heparin competition assays that contained the following proteins: VEGF-A, SDF-1α, FGF-2 and PDGF-β.

IC50 [3]	Structure (SMILES)	inhibition of PDGF-β-induced NHDF proliferation [1]	inhibition of control and/or VEGF-A-stimulated angiogenesis [2]
4.5 nM	C#CCCCOC1OC(COS(=O)(=O)[O-])C(OC2OC(C(=O)[O-])C(OC3OC(COS(=O)(=O)[O-])C(OC4OC(C(=O)[O-])C(OC5OC(COS(=O)(=O)[O-])C(OC6OC(C(=O)[O-])C(OCc7ccccc7)C(OCc7ccccc7)C6OS(=O)(=O)[O-])C(OCc6ccccc6)C5NS(=O)(=O)[O-])C(OCc5ccccc5)C4OS(=O)(=O)[O-])C(OCc4ccccc4)C3NS(=O)(=O)[O-])C(OCc3ccccc3)C2OS(=O)(=O)[O-])C(OCc2ccccc2)C1NS(=O)(=O)[O-].[Na+].[Na+].[Na+].[Na+].[Na+].[Na+].[Na+].[Na+].[Na+].[Na+].[Na+].[Na+] (stereo not drawn) [Compound 239]	inhibit PDGF-β proliferation (starting in the micromolar range)	inhibition of control and/or VEGF-A-stimulated angiogenesis
3.6 nM	C#CCCCOC1OC(COS(=O)(=O)[O-])C(OC2OC(C(=O)[O-])C(OC3OC(COS(=O)(=O)[O-])C(OC4OC(C(=O)[O-])C(OC5OC(COS(=O)(=O)[O-])C(OC6OC(C(=O)[O-])C(OC7OC(COS(=O)(=O)[O-])C(OC8OC(C(=O)[O-])C(OCc9ccccc9)C(OCc9ccccc9)C8OS(=O)(=O)[O-])C(OCc8ccccc8)C7NS(=O)(=O)[O-])C(OCc7ccccc7)C6OS(=O)(=O)[O-])C(OCc6ccccc6)C5NS(=O)(=O)[O-])C(OCc5ccccc5)C4OS(=O)(=O)[O-])C(OCc4ccccc4)C3NS(=O)(=O)[O-])C(OCc3ccccc3)C2OS(=O)(=O)[O-])C(OCc2ccccc2)C1NS(=O)(=O)[O-].[Na+].[Na+].[Na+].[Na+].[Na+].[Na+].[Na+].[Na+].[Na+].[Na+].[Na+].[Na+].[Na+].[Na+].[Na+].[Na+] (stereo not drawn) [Compound 240]	inhibit PDGF-β proliferation (starting in the micromolar range)	inhibition of control and/or VEGF-A-stimulated angiogenesis
